In patent publication US12559523B2, “Compositions comprising chemerin analogs and methods of use” (OKYO Pharma Limited, priority 2019, dated 2026):
Non-standard residues stand in square brackets, D forms with d. Residues, ends and D or L forms follow the SMILES beside them. *: point of attachment. PEG8 = NCCOCCOCCOCCOCCOCCOCCOCCOCCC(=O)O; Palmitoyl = CCCCCCCCCCCCCCCC(=O)*; Tic = O=C(O)[C@@H]1Cc2ccccc2CN1; Nle = CCCC[C@H](N)C(=O)O; Nva = CCC[C@H](N)C(=O)O

Key:
[1] = system: conjunctival goblet cells (GC); experiment: Conjunctival goblet cell density measurement, dry eye; assay type: in vivo, mouse; conditions: superior and inferior conjunctiva; FIG. 4 and 6
Method: In FIGS. 4 and 6, conjunctival goblet cells (GC) measurement is performed as follows. Enucleated mouse eyes with intact conjunctiva were fixed in 10% formalin and embedded in paraffin. Six-micrometer sections were stained with periodic acid-Schiff reagent.

[2] = system: CD4+ T cells; experiment: Immunohistochemistry count of CD4+ T cells in conjunctival epithelium, dry eye; assay type: in vivo, mouse; conditions: FIG. 3 and 5
Method: In FIGS. 3 and 5, immunohistochemistry is used to detect CD4+ T cells. Enucleated mouse eyes with intact conjunctiva were suspended in optimal cutting temperature (OCT) compound and flash frozen in liquid nitrogen. Immunohistochemistry was performed on six micrometer frozen sections to detect and count the number of cells in conjunctival epithelium that stained positively for CD4, a biotinylated secondary antibody and NovaRED peroxidase. Positively stained cells were counted in the conjunctiva using Nikon imaging software.

Structure (SMILES) | dry eye induced loss of goblet cell density [1] | dry eye induced CD4+ T-cells infiltration [2]
CCCCCCCCCCCCCCCC(=O)NCCOCCOCCOCCOCCOCCOCCOCCOCCC(=O)NCC(=O)NCC(=O)N[C@H](Cc1ccc(O)cc1)C(=O)N[C@@H](Cc1ccccc1)C(=O)N[C@@H](CC(C)C)C(=O)N1CCC[C@H]1C(=O)N[C@H](CO)C(=O)N[C@@H](CCC(N)=O)C(=O)N[C@@H](Cc1ccccc1)C(=O)N[C@H](C)C(=O)N1Cc2ccccc2C[C@H]1C(=O)N[C@@H](CO)C(=O)O [OK-101, Gly-Gly-dTyr-Phe-Leu-Pro-dSer-Gln-Phe-dAla-Tic-Ser] ({Palmitoyl-PEG8}-GG[dY]FLP[dS]QF[dA][Tic]S-OH) | normalized | significantly reduced
CCCCCCCCCCCCCCCC(=O)NCCOCCOCCOCCOCCOCCOCCOCCOCCC(=O)N[C@@H](CCC)C(=O)NCC(=O)N[C@H](Cc1ccc(O)cc1)C(=O)N[C@@H](Cc1ccccc1)C(=O)N[C@@H](CCCC)C(=O)N1CCC[C@H]1C(=O)N[C@H](CO)C(=O)N[C@@H](CCC(N)=O)C(=O)N[C@@H](Cc1ccccc1)C(=O)N[C@H](C)C(=O)N1Cc2ccccc2C[C@H]1C(=O)N[C@H](C)C(=O)O [OK-113, NorV-Gly-dTyr-Phe-Nle-Pro-dSer-Gln-Phe-dAla-Tic-dAla] ({Palmitoyl-PEG8}-[Nva]G[dY]F[Nle]P[dS]QF[dA][Tic][dA]-OH) | normalized | significantly reduced
